Assay results reported in patent US20250276983A1, “COMPOUNDS AND METHODS FOR MODULATING HER2” (IAMBIC THERAPEUTICS, INC., priority 2022, published 2025).
pIC50: −log10 of the molar value.

Tests used:
[1] = system: BaF3_HER2YVMA cells; test: Cell growth inhibition assay, BaF3_HER2YVMA; format: cell-based; conditions: 72 h, BaF3_HER2YVMA cells, 3 days treatment, CellTiterGlo 2.0; read-out: HER2-YVMA IC50 (nM), cell growth inhibition
[2] = system: BaF3_EGFRWT cells; test: Cell growth inhibition assay, BaF3_EGFRWT; format: cell-based; conditions: 72 h, 80 ng/mL recombinant human EGF, 3 days treatment, CellTiterGlo 2.0, read-out: EGFR WT IC50 (nM), cell growth inhibition
[3] = system: BaF3_HER2WT cells; test: Cell growth inhibition assay, BaF3_HER2WT; format: cell-based; conditions: 72 h, 3 days treatment, CellTiterGlo 2.0, read-out: HER2 WT IC50 (nM), cell growth inhibition
[4] = molecular target: wtERBB2 (Homo sapiens (Human), UniProt P04626); test: HotSpot radiometric kinase activity assay, wtERBB2; format: biochemical; conditions: 30 nM wtERBB2, 10 μM 33P-ATP, 20 min preincubation, 2 hours, read-out: HER2 WT IC50
Chain of wtERBB2 (P04626 23-1255): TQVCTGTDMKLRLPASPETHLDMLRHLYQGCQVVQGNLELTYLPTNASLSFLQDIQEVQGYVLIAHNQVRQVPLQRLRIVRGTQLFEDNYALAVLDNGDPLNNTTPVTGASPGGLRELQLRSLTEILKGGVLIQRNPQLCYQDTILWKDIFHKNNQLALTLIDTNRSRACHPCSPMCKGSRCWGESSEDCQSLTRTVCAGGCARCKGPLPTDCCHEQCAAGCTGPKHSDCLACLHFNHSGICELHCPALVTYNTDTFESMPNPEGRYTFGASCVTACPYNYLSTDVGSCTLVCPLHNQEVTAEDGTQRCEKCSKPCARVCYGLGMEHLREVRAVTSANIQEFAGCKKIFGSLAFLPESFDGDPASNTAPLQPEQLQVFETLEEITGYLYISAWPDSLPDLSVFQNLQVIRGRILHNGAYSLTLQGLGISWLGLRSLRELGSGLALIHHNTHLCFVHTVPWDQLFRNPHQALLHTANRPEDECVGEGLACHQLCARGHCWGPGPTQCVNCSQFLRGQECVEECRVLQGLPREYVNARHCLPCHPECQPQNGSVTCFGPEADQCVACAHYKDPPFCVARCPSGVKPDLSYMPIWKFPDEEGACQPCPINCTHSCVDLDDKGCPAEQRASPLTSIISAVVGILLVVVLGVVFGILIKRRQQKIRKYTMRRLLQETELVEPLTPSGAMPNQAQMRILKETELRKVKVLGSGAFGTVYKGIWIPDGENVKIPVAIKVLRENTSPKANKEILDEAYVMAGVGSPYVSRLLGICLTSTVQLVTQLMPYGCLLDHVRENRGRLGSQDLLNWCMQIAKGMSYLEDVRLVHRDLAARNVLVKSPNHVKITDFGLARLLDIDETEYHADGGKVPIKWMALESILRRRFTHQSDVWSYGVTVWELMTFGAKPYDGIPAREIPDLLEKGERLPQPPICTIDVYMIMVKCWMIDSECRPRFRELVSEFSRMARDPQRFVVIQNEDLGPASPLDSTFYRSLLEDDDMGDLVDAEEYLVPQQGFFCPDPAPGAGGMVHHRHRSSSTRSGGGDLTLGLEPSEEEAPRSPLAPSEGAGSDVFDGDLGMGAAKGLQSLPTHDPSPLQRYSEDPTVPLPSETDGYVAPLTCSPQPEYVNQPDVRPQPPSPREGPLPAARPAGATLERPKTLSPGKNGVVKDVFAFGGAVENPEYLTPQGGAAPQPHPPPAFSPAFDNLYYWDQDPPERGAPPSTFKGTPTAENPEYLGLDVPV
Experimental: The purpose of the wtERBB2, ERBB2-A775_G776insYVMA (ERBB2YVMA), wtEGFR biochemical assay was to evaluate the inhibition (% inhibition and IC50 values) of the small molecule inhibitors by using the “HotSpot” radiometric kinase activity assay. HotSpot assays monitor the […] of kinase substrate by the radioactive gamma phosphate of adenosine triphosphate (33P-ATP) during biochemical reactions. HotSpot assays was performed in steps upon completion of the kinase reaction: deposition of a reaction mixture aliquot onto P81 ion exchange paper, extensive washing of the aforementioned P81 paper using phosphoric acid to remove unbound radiolabeled 33P-ATP from the P81 paper, and finally visualization and quantification of the dried P81 paper utilizing a phosphoimager. […] Typical reaction solutions (10 μL final reaction volume) contained the following buffer conditions: 20 mM Hepes (pH 7.5), 10 mM MgCl2, 1 mM EGTA, 0.01% Brij35, 0.02 mg/mL BSA, 0.1 mM Na3VO4, 2 mM DTT, 1% DMSO. The assay was primed by preparing a fresh 0.2 mg/mL solution of pEY (Sigma Cat: P7244) substrate in the reaction buffer and supplementing that solution with […] of MnCl2 as substrate cofactor (Sigma Cat: M9522). The kinase of interest was then added to the solution at the appropriate concentration (30 nM wtERBB2 from, or 20 nM ERBB2YVMA, or 4 nM wtEGFR) and gently mixed prior to delivery of compound in 100% DMSO by acoustic dispensing (Beckman Echo550). Compound, Kinase, and substrate were allowed to incubate for 20 min at room temperature prior to the initiation of the reaction by addition of 33P-ATP (PerkinElmer Cat: NEG602, final conc 10 μM). […] IC50 determinations were made from a plot of kinase activity as a function of inhibitor concentration fit to the 4-parameter IC50 equation with the enzyme concentration held constant using GraphPad Prism (San Diego).

Row | SMILES | IC50 [1] [nM] | IC50 [2] [nM] | IC50 [3] [nM] | pIC50 [4]
1 | Cc1cc(Nc2ncnn3ccc(C4CCN(C(=O)CCCN(C)C)CC4)c23)ccc1Oc1ccn2ncnc2c1 [Example 23, 1-(4-(4-((4-([1,2,4]triazolo[1,5-a]pyridin-7-yloxy)-3-methylphenyl)amino)pyrrolo[2,1-f][1,2,4]triazin-5-yl)piperidin-1-yl)-4-(dimethylamino)butan-1-one] | 1500 to 5000 | 1500 to 5000 | 500 to 1500 | > 6.70
2 | Cc1cc(Nc2ncnn3ccc(C4CN(C(=O)/C=C/CN)C4)c23)ccc1Oc1ccn2ncnc2c1 [Example 87, (E)-1-(3-(4-((4-([1,2,4]triazolo[1,5-a]pyridin-7-yloxy)-3-methylphenyl)amino)pyrrolo[2,1-f][1,2,4]triazin-5-yl)azetidin-1-yl)-4-aminobut-2-en-1-one] | 1500 to 5000 | 1500 to 5000 | 1500 to 5000 | > 6.70
3 | C=C(F)C(=O)NC1CN(c2ccn3ncnc(Nc4ccc(Oc5ccn6ncnc6c5)c(C)c4)c23)C1 [Example 18, N-(1-(4-((4-([1,2,4]triazolo[1,5-a]pyridin-7-yloxy)-3-methylphenyl)amino)pyrrolo[2,1-f][1,2,4]triazin-5-yl)azetidin-3-yl)-2-fluoroacrylamide] | 500 to 1500 | 1500 to 5000 | 200 to 500 | > 6.70
4 | C=CC(=O)N1CCC(c2ccn3ncnc(Nc4ccc(Oc5ccn6ncnc6c5)c(C)c4)c23)C1 (stereo not drawn) [Example 11, 1-(3-(4-((4-([1,2,4]triazolo[1,5-a]pyridin-7-yloxy)-3-methylphenyl)amino)pyrrolo[2,1-f][1,2,4]triazin-5-yl)pyrrolidin-1-yl)prop-2-en-1-one] | < 200 | 1500 to 5000 | < 200 | > 6.70
5 | Cc1cc(Nc2ncnn3ccc(-c4cnn(CCNC(=O)/C=C/CN(C)C)c4)c23)ccc1Oc1ccn2ncnc2c1 [Example 103, (E)-N-(2-(4-(4-((4-([1,2,4]triazolo[1,5-a]pyridin-7-yloxy)-3-methylphenyl)amino)pyrrolo[2,1-f][1,2,4]triazin-5-yl)-1H-pyrazol-1-yl)ethyl)-4-(dimethylamino)but-2-enamide] | 1500 to 5000 | 1500 to 5000 | 1500 to 5000 | > 6.70
6 | Cc1cc(Nc2ncnn3ccc(C4CN(C(=O)/C=C/CN5CCC5)C4)c23)ccc1Oc1ccn2ncnc2c1 [Example 102, (E)-1-(3-(4-((4-([1,2,4]triazolo[1,5-a]pyridin-7-yloxy)-3-methylphenyl)amino)pyrrolo[2,1-f][1,2,4]triazin-5-yl)azetidin-1-yl)-4-(azetidin-1-yl)but-2-en-1-one] | 1500 to 5000 | 1500 to 5000 | 500 to 1500 | > 6.70
7 | Cc1cc(Nc2ncnn3ccc(N4CCN(C(=O)/C=C/CN(C)C)CC4)c23)ccc1Oc1ccn2ncnc2c1 [Example 22, (E)-1-(4-(4-((4-([1,2,4]triazolo[1,5-a]pyridin-7-yloxy)-3-methylphenyl)amino)pyrrolo[2,1-f][1,2,4]triazin-5-yl)piperazin-1-yl)-4-(dimethylamino)but-2-en-1-one] | < 200 | 1500 to 5000 | < 200 | > 6.70
8 | Cc1cc(Nc2ncnn3ccc(C4CN(C(=O)/C=C/CN5CC(F)(F)C5)C4)c23)ccc1Oc1ccn2ncnc2c1 [Example 91, (E)-1-(3-(4-((4-([1,2,4]triazolo[1,5-a]pyridin-7-yloxy)-3-methylphenyl)amino)pyrrolo[2,1-f][1,2,4]-triazin-5-yl)azetidin-1-yl)-4-(3,3-difluoroazetidin-1-yl)but-2-en-1-one] | 500 to 1500 | 1500 to 5000 | < 200 | > 6.70
9 | Cc1cc(Nc2ncnn3ccc(C4CCCN(C(=O)/C=C/CN(C)C)C4)c23)ccc1Oc1ccn2ncnc2c1 (stereo not drawn) [Example 96, (E)-1-(3-(4-((4-([1,2,4]triazolo[1,5-a]pyridin-7-yloxy)-3-methylphenyl)amino)-pyrrolo-[2,1-f][1,2,4]-triazin-5-yl)piperidin-1-yl)-4-(dimethylamino)but-2-en-1-one] | 500 to 1500 | 1500 to 5000 | < 200 | > 6.70
